Measurements: PMC11582634, “Discovering the inhibition of YAP/TEAD Hippo signaling pathway via new pyrazolone derivatives: synthesis, molecular docking and biological investigations” (Scientific Reports, 2024)

How the values were obtained:
[1] = DPPH free radical scavenging (antioxidant) assay; settings: in-vitro
Method: The synthesized pyrazolone derivatives’ capacity to scavenge free radicals DPPH was assessed using a modified Zheleva-Dimitrova technique. Also, the DPPH radical was investigated to L-ascorbic acid with concentrations (10–100 μM) that serving as the standard positive control and the scavenging percent was calculated by Eq. 1.1 [drawing 1]

[2] = test system: HCT-116, HepG2, and MCF-7; experiment: MTT assay, whole panel of cancer cell lines (result in words); assay type: cell-based, human; settings: 48 h, compared with Sorafenib
From the text: (§1) Mammary gland (MCF-7;# ATCC HTB-22), colorectal adenocarcinoma (HCT-116; # ATCC CCL-247)), hepatocellular carcinoma (HepG-2; #ATCC HB-8065), and human lung fibroblast (WI-38; # ATCC CCL-75). The ATCC cell line was obtained via the Holding Company for Biological Products and Vaccines (VACSERA), Cairo, Egypt.
(§2) The MTT test was utilized to ascertain the pyrazolone derivatives’ inhibitory effects on cell growth using the aforementioned cell lines. This colorimetric assay is based on the transformation of yellow tetrazolium bromide (MTT) by mitochondrial succinate dehydrogenase in living cells into a purple formazan derivative. The RPMI-1640 medium was supplemented with 10% fetal bovine serum to cultivate cell lines. At 37° C in an incubator with 5% CO2, 100 units/mL of penicillin and 100 µg/mL of streptomycin were introduced as antibiotics. The cell lines were seeded by 1.0 × 10^4 cells/well in a 96-well plate and kept at 37 °C for 24 h with 5% CO2. Following incubation, the cells were subjected to several concentrations of newly synthesized pyrazolone derivatives and left for 48 h incubation.20 µL of a 5 mg/mL MTT solution was added and incubated for 4 h after the drug treatment. To dissolve the purple formazan produced in each well, 100 µL of dimethyl sulfoxide (DMSO) was applied. The colorimetric test is performed at 630 nm absorbance and recorded using a plate reader (EXL 800, USA)[32].
(§3) GraphPad Prism 6 (San Diego, CA) (GraphPad Prism 6, https://www.graphpad.com/scientific-software/prism/) was used to calculate the IC50 values and the data was expressed as mean ± SE.

[3] = test system: HCT-116; experiment: MTT assay, HCT-116 colorectal adenocarcinoma cells; assay type: cell-based; settings: Homo sapiens, 48 h, mean ± SE, read-out: IC50 against HCT-116
[4] = test system: HepG-2; experiment: MTT assay, HepG-2 hepatocellular carcinoma cells; assay type: cell-based; settings: Homo sapiens, HepG2, 48 h, mean ± SE, read-out: IC50 against HepG-2
[5] = test system: MCF-7; experiment: MTT assay, MCF-7 mammary gland cells; assay type: cell-based; settings: Homo sapiens, MCF7, 48 h, mean ± SE, read-out: IC50 against MCF-7
[6] = test system: WI-38; experiment: MTT assay, WI-38 normal human lung fibroblast cells; assay type: cell-based; settings: 48 h, compared with SOR
From the text: as §1
as §2, with “Following incubation, the cells were subjected to several concentrations of newly synthesized pyrazolone derivatives and left for 48 h incubation.20 µL of a 5 mg/mL MTT solution was added and incubated for 4 h after the drug treatment. To dissolve the purple formazan produced in each well, 100 µL of dimethyl sulfoxide (DMSO) was applied.” left out
as §3

[7] = MTT assay, WI-38 normal human lung fibroblast cells; assay type: cell-based; settings: human, WI-38 normal lung fibroblast cells
From the text: as §1
as §2, with “Following incubation, the cells were subjected to several concentrations of newly synthesized pyrazolone derivatives and left for 48 h incubation.20 µL of a 5 mg/mL MTT solution was added and incubated for 4 h after the drug treatment. To dissolve the purple formazan produced in each well, 100 µL of dimethyl sulfoxide (DMSO) was applied.” left out
as §3

Row | Compound | IC50 [1] [µM] | IC50 [3] [µM] | IC50 [4] [µM] | IC50 [5] [µM] | melting point [°C] | IC50 at 48 h [7] [µM] | Impact on all panels of cancer cell lines (in words) [2] | Cytotoxic effect on WI-38 normal cells (in words) [6]
1 | 3-amino-4-((4-(6-(4-(dimethylamino)phenyl)-2-oxo-1,2-dihydropyridine-4-yl)phenyl)diazenyl)-1-phenyl-1H-pyrazole-5(4H)-one [Compound 7] | 93.7 ± 0.47 |  |  |  |  |  | moderate to weak impact | 
2 | CN(C)c1ccc(C2CC(c3ccc(N=NC4C(=O)N(c5ccccc5)N=C4N)cc3)=NN2c2ccccc2)cc1 (stereo not drawn) [Compound 4, 3-amino-4-((4-(5-(4-(dimethylamino)phenyl)-1-phenyl-4,5-dihydro-1H-pyrazole-3-yl)phenyl)diazenyl)-1-phenyl-1H-pyrazole-5(4H)-one] | 19.88 ± 0.15 | 7.67 ± 0.5 | 5.85 ± 0.4 | 6.97 ± 0.5 | 96 |  |  | no cytotoxic effects
3 | CC(=O)N1N=C(c2ccc(N=NC3C(=O)N(c4ccccc4)N=C3N)cc2)CC1c1ccc(N(C)C)cc1 (stereo not drawn) [Compound 6, 4-((4-(1-acetyl-5-(4-(dimethylamino)phenyl)-4,5-dihydro-1H-pyrazole-3-yl)phenyl)diazenyl)-3-amino-1-phenyl-1H-pyrazole-5(4H)-one] | 32.4 ± 0.2 | 16.5 ± 1.3 | 25.6 ± 1.7 | 19.8 ± 1.5 | 74 |  |  | 
4 | CN(C)c1ccc(-c2cc(-c3ccc(N=NC4C(=O)N(c5ccccc5)N=C4N)cc3)nc(=S)[nH]2)cc1 (stereo not drawn) [Compound 8, 3-amino-4-((4-(6-(4-(dimethylamino)phenyl)-2-thioxo-1,2-dihydropyrimidin-4-yl)phenyl)diazenyl)-1-phenyl-1H-pyrazol-5(4H)-one] | 65.54 ± 0.32 |  |  |  | 103 |  | moderate to weak impact | 
5 | CN(C)c1ccc(C2C=C(c3ccc(/N=N/C4C(=O)N(c5ccccc5)N=C4N)cc3)OC(N)=C2C#N)cc1 (stereo not drawn) [Compound 9, (E)-2-amino-6-(4-((3-amino-5-oxo-1-phenyl-4,5-dihydro-1H-pyrazole-4-yl)diazenyl)phenyl)-4-(4-(dimethylamino)phenyl)-4H-pyran-3-carbonitrile] | 47.07 ± 0.24 |  |  |  | 139 |  | moderate to weak impact | 
6 | CNC(=O)c1cc(Oc2ccc(NC(=O)Nc3ccc(Cl)c(C(F)(F)F)c3)cc2)ccn1 [Sorafenib, reference compound] |  |  |  |  |  | 20.3 ± 0.45 |  | 

More lines, main results first:

Row | IC50 [1] [µM] | IC50 [3] [µM] | IC50 [4] [µM] | IC50 [5] [µM] | melting point [°C] | IC50 at 48 h [7] [µM] | Compound | Impact on all panels of cancer cell lines (in words) [2] | Cytotoxic effect on WI-38 normal cells (in words) [6]
7 | 74.3 ± 0.38 |  |  |  | 116 |  | CN(C)c1ccc(-c2cc(-c3ccc(/N=N/C4C(=O)N(c5ccccc5)N=C4N)cc3)nc(N)c2C#N)cc1 (stereo not drawn) [Compound 10, (E)-2-amino-6-(4-((3-amino-5-oxo-1-phenyl-4,5-dihydro-1H-pyrazole-4-yl)diazenyl)phenyl)-4-(4-(dimethylamino)phenyl)nicotinonitrile] | moderate to weak impact | 
8 | 53.67 ± 0.29 |  |  |  | 92 |  | CN(C)c1ccc(-c2cc(-c3ccc(/N=N/C4C(=O)N(c5ccccc5)N=C4N)cc3)[nH]c(=O)c2C#N)cc1 (stereo not drawn) [Compound 11, (E)-6-(4-((3-amino-5-oxo-1-phenyl-4,5-dihydro-1H-pyrazol-4-yl)diazenyl)phenyl)-4-(4-(dimethylamino)phenyl)-2-oxo-1,2-dihydropyridine-3-carbonitrile] | moderate to weak impact | 
9 | 16.81 ± 0.1 |  |  |  |  |  | O=C1O[C@H]([C@@H](O)CO)C(O)=C1O [L-ascorbic acid, reference compound] |  | 
